According to patent publication US20050250793A1, “Preventives/remedies for hot flash” (priority 2002, published 2005):
Counter-ions that a name gives are not always drawn.

What was measured:
[1] = Administration to premenopausal healthy females for 14 days; format: in vivo, human; conditions: 32 premenopausal healthy females (20 to 45 years old), 1 to 25 mg/day for 14 days
Description: To 32 premenopausal healthy females (20 years old to 45 years old), 1 to 25 mg/day of the compound of Reference Example 7 was administered for 14 days. As a result, the serum estradiol concentration was reduced, but hot flash was not observed.

rat GnRH receptor = target: T1, rat GnRH receptor (Rattus norvegicus, UniProt P30969); assay: 125I-leuprorelin binding inhibition, rat anterior pituitary membrane fraction; conditions: 1 μM compound, 4° C., 90 minutes, read-out: Binding inhibiting rate (%) Rat (1 μM)
T1 construct: Anterior pituitaries were removed from 40 Whister rats (8 weeks old, male); from tissue; host or cells: rat anterior pituitary membrane fraction
T1 sequence (P30969 1-327): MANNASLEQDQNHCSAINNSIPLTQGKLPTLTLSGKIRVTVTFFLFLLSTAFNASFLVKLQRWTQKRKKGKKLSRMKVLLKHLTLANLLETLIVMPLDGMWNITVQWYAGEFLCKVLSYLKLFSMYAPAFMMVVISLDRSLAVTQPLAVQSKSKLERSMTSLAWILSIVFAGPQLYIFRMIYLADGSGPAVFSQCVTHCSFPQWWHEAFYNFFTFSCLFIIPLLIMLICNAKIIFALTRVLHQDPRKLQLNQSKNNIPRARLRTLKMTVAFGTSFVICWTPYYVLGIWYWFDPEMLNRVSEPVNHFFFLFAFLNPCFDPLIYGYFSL

CONC(=O)Nc1ccc(-c2sc3c(c2CN(C)Cc2ccccc2)c(=O)n(-c2ccccc2)c(=O)n3Cc2c(F)cccc2F)cc1 [Reference Example 7, 5-(N-benzyl-N-methylaminomethyl)-1-(2,6-difluorobenzyl)-6-[4-(3-methoxyureido)phenyl]-3-phenylthieno[2,3-d]pyrimidine-2,4(1H, 3H)-dione]
hot flash [1]: not observed | serum estradiol concentration [1]: reduced

CONC(=O)Nc1ccc(-c2sc3c(c2CN(C)Cc2ccccc2)c(=O)n(-c2ccccc2)c(=O)n3Cc2c(F)cccc2F)cc1 [Reference Example 8, 5-(N-benzyl-N-methylaminomethyl)-1-(2,6-difluorobenzyl)-6-[4-(3-methoxyureido)phenyl]-3-phenylthieno[2,3-d]pyrimidine-2,4(1H, 3H)-dione hydrochloride]
inhibition at 1 µM (rat GnRH receptor): 27%
